Measurements from patent US20240279302A1, “OLFACTORY RECEPTOR EXPRESSING METHOD AND RESPONSE MEASUREMENT METHOD” (Kao Corporation, priority 2021, published 2024).
pEC50: −log10 of the molar value. Read-outs that look alike come from different tables or passages of the source.

How the values were obtained:
Experiment in all cases: Luciferase assay, sulfur compounds
Format in all cases: cell-based
[1] = biological target: T1, consensus OR6B3 (Homo sapiens, UniProt Q8NGW1, A219G/C161Y/C234R/F239S/F305L/G10S/I281L/L135I/L142V/M157V/M215V/P138T/Q89R/R8K/S64G/T78I/V136M/V15L/V166A/V250I)
T1 construct: expressed in transfected cells; host or cells: HEK293
T1 sequence (Q8NGW1 with tags, fused parts or gaps R8K/G10S/V15L/S64G/T78I/Q89R/L135I/V136M/P138T/L142V/M157V/C161Y/V166A/M215V/A219G/C234R/F239S/V250I/I281L/F305L): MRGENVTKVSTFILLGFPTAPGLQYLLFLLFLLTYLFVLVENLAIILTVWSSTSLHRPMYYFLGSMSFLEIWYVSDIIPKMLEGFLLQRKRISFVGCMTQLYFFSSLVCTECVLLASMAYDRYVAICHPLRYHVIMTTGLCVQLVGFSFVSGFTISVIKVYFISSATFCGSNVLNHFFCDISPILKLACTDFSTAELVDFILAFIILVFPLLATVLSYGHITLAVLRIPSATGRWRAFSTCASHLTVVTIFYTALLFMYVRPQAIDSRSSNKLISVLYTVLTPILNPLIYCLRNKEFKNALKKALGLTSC
Protocol: (§1) A reaction solution as to each consensus olfactory receptor prepared in Examples described above was prepared according to the composition shown in Table 4, left standing for 20 minutes in a clean bench, and then added to each well of a 96-well plate (Becton, Dickinson and Company). The original olfactory receptor was used as to OR4S2. Composition shown in Table 20 was used as to OR11H2 and OR4E2. Subsequently, 100 μL of HEK293 cells suspended in DMEM (Nacalai Tesque, Inc.) was inoculated at 2×10^5 cells/cm^2 to each well, and cultured for 24 hours in an incubator kept at 37° C. and 5% CO2. Cells expressing no olfactory receptor (Mock) were provided as a control.
(§2) The medium was removed from the cultures prepared in 1), and 75 μL of a test substance solution (methyl mercaptan (MeSH) (CAS: 74-93-1, Tokyo Chemical Industry Co., Ltd.), dimethyl sulfide (DMS) (CAS: 75-18-3, FUJIFILM Wako Pure Chemical Corp.), dimethyl disulfide (DMDS) (CAS: 624-92-0, Tokyo Chemical Industry Co., Ltd.), concentration range: 0 μM, 1 μM, 3 μM, 10 μM, 30 μM, 100 μM, and 300 μM, or dimethyl trisulfide (DMTS) (CAS: 3658-80-8, Tokyo Chemical Industry Co., Ltd.), concentration range: 0 μM, 0.1 μM, 0.3 μM, 1 μM, 3 μM, 10 μM, and 30 μM) prepared with a fresh medium was added thereto. Under a copper ion addition condition, the test substance solution was adjusted to contain 30 μM copper(II) chloride (FUJIFILM Wako Pure Chemical Corp.) in addition to the odorant. The cells were cultured for 4 hours in a CO2 incubator and the luciferase gene was expressed sufficiently in the cells. Luciferase activity was measured using Dual-Glo™ luciferase assay system (Promega Corp.) in accordance with the operation manual of the product. A luminescence value derived from firefly luciferase induced by test substance stimulation in each well of the 96-well plate was divided by a luminescence value derived from Renilla luciferase to calculate a value (fluc/hRluc) as a signal, which was then used in analysis. The signal under each transfection condition was normalized with the signal value (fluc/hRluc) under an odorant stimulation-free condition defined as 0% and the signal value (fluc/hRluc) by stimulation with 10 μM forskolin defined as 100%, and used as a response (%) in analysis.

[2] = biological target: T2, consensus OR11H2 (Homo sapiens, UniProt Q8NH07, A157T/A61V/C266F/D203A/E289A/F213L/F41L/F62C/G242R/I210T/I230L/I288V/I49T/K181M/K238L/L128F/L146H/L162I/M76I/N106T/N25R/P269S/Q137R/Q308R/Q30L/R68Q/S246A/S268G/T131A/T283A/T37K/V63A/Y156C); details: in the presence of a copper ion
T2 construct: expressed in transfected cells; host or cells: HEK293
T2 sequence (Q8NH07 12-326 N25R/Q30L/T37K/F41L/I49T/A61V/F62C/V63A/R68Q/M76I/N106T/L128F/T131A/Q137R/L146H/Y156C/A157T/L162I/K181M/D203A/I210T/F213L/I230L/K238L/G242R/S246A/C266F/S268G/P269S/T283A/I288V/E289A/Q308R): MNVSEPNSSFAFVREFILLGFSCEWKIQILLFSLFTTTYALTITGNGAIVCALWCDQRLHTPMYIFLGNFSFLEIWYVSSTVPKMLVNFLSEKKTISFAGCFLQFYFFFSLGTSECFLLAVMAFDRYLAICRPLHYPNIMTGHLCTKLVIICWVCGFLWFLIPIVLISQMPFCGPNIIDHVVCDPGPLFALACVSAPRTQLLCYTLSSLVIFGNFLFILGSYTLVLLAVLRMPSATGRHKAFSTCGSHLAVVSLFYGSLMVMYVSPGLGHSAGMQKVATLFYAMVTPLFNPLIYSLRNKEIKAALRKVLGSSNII
Protocol: as §1, §2

[3] = biological target: T3, consensus OR2T29 (Homo sapiens, UniProt Q8NH02, A149V/A76M/C55S/F147L/I190K/I217V/K41M/L14S/L223S/L224F/L249M/L87M/M19V/M302T/M75V/R23S/R6W/S169T/S32C/S61T/T121A/T189M/V229I/V48I/V96I/W176R)
T3 construct: expressed in transfected cells; host or cells: HEK293
T3 sequence (Q8NH02 with tags, fused parts or gaps R6W/L14S/M19V/R23S/S32C/K41M/V48I/C55S/S61T/M75V/A76M/L87M/V96I/T121A/F147L/A149V/S169T/W176R/T189M/I190K/I217V/L223S/L224F/V229I/L249M/M302T): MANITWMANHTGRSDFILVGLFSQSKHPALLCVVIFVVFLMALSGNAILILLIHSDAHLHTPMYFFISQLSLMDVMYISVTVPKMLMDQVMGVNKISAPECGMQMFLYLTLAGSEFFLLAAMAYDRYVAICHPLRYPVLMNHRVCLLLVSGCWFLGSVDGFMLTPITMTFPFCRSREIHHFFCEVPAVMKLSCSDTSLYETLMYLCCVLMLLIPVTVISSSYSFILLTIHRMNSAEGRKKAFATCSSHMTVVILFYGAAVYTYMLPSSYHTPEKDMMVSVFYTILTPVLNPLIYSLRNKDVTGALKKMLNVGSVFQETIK
Protocol: as §1, §2

[4] = biological target: T4, consensus OR4E2 (Homo sapiens, UniProt Q8NGC2, A48T/F285L/G158V/H228Q/I116T/I142V/I197M/I47V/L183P/M219T/M25I/M36V/Q234R/R21W/S209T/S40L/S54R/T201S/T49I/T99A/V118M/V214L); details: for dose dependence of the response of consensus OR4E2 / response of consensus OR4E2: in the presence of a copper ion
T4 construct: Flag (N); Rho tag (N); expressed in transfected cells; host or cells: HEK293
T4 sequence (Q8NGC2 1-312 R21W/M25I/M36V/S40L/I47V/A48T/T49I/S54R/T99A/I116T/V118M/I142V/G158V/L183P/I197M/T201S/S209T/V214L/M219T/H228Q/Q234R/F285L limits assumed): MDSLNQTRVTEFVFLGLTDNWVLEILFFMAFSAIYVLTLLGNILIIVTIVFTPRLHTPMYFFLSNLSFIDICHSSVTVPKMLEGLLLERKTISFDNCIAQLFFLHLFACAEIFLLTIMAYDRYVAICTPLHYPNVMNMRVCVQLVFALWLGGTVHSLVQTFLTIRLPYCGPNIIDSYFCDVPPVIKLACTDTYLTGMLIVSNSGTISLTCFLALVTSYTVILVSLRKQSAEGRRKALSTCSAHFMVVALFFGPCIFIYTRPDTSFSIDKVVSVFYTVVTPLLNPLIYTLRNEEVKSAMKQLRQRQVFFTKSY
Protocol: as §1, §2

[5] = in the presence of a copper ion

EC50 ([4]; consensus OR4E2, 30 μM CuCl2, read-out: EC50(μM) with 30 μM CuCl2) [µM] | Compound | response of consensus OR6B3 [1, 5] | response of consensus OR11H2 [2] | pEC50 [3] | dose dependence of the response of consensus OR2T29 [3, 5] | response of consensus OR2T29 [3, 5] | pEC50 [4] | dose dependence of the response of consensus OR4E2 [4] | response of consensus OR4E2 [4] | pEC50 [1] | dose dependence of the response of consensus OR6B3 [1, 5]
– | CS [methyl mercaptan] | responded | responded | 4.07 | dose-dependent response | responded | 3.60 | dose-dependent response | responded | – | –
33 | CSSSC [dimethyl trisulfide] | responded | responded | – | – | responded | – | dose-dependent response | responded | – | –
– | CSSC [dimethyl disulfide] | responded | responded | – | – | responded | 3.40 | dose-dependent response | responded | 2.80 | dose-dependent response
